Where two headings read alike, the source gives them in different places.
Experiments:
female C57BL/6J mice [1] = test: Oral sucrose tolerance test; type: in vivo; conditions: sucrose 2 g/kg BW; for decrease of the AUC (blood glucose, 0–120 min): versus negative control
Procedure: (§1) Female C57BL/6J mice, 6 weeks old, weighting 16–20 g, were obtained from the Skbex Biotechenology Company Limited (Henan, China). The animals were housed in Experimental Animal Center of Zhoukou Normal University under 12 h light-dark cycle at controlled temperature (22 ± 1°C), and provided with a standard pellet diet and water ad libitum. The mice were adapted to diet and general conditions of vivarium for 1 week before the experiment. After an 16 h fasting, the mice were divided into three groups randomly (eight mice each group). […] Mice were fasted 16 h and then intragastrically (i.g.) administrated the inhibitors, 15 min later, 2 g/kg BW of sucrose or 2 g/kg BW of maltose solution was given i.g. to the animals. Blood samples were taken from the tail vein at 0, 30, 60, and 120 min after sucrose or maltose loading, and blood glucose was measured with Accu-Chek Active glucometer (Roche, Germany). Area under the curve (AUC) over 0–120 min was calculated by the trapezoidal method. All animals were cared under the frame of the China Council on Animal Care and all procedures were approved by the Health Sciences Animal Welfare Committee of Zhoukou Normal University.

α-glucosidase [2] = conditions: ref Dewi et al., 2014; cited from earlier work
α-glucosidase [3] = target: T1, α-glucosidase (Saccharomyces cerevisiae, UniProt P53341); test: Enzymatic kinetics of α-glucosidase (Lineweaver–Burk, Dixon and secondary plots); type: biochemical; conditions: for Inhibition mode: Lineweaver–Burk plots; for KIS: inhibitor binding with enzyme-substrate complex, vertical intercept (1/Vm) versus inhibitor concentration
T1 construct: purchased
T1 sequence (P53341 whole entry): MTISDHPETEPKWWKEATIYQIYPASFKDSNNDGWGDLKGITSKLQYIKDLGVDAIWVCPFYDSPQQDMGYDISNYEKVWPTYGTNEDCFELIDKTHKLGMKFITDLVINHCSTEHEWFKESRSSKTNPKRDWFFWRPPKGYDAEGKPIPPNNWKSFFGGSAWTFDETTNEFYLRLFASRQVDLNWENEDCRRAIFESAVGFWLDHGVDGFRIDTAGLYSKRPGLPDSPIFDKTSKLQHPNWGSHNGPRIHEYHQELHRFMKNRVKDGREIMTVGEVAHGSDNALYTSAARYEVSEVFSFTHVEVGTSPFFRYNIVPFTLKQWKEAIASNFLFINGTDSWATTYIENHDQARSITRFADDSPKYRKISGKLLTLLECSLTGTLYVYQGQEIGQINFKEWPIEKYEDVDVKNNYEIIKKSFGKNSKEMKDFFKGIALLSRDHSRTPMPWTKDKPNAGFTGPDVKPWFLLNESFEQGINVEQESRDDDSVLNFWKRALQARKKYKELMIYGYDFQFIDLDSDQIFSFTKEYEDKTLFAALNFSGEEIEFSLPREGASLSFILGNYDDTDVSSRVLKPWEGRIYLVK
Procedure: pNPG with a concentration range of 100–4,000 μM and α-glucosidase were incubated with different concentrations of inhibitor for 10 min, respectively. 20 μl of 1.0 U/ml enzyme solutions were first mixed with 10 μl of different concentrations of inhibitors, then 50 μl PBS solutions were added, and the mixed solutions were incubated at 37°C for 10 min. Subsequently, 20 μl of pNPG solutions (1.25, 2.5, 5, 10 and 20 mM) were added, and the mixed solutions were further incubated at 37°C for 25 min, the absorbance of reaction solution was measured at 405 nm every 3 min. The kinetic parameters, Michaelis–Menten (Km) and maximum velocity (Vmax), were found using Lineweaver–Burk plots to check the mode of α-glucosidase inhibition for compounds 1 and 4. The dissociation constants between inhibitor and enzyme (Ki) were calculated from Dixon plots. Two inhibition constants, KI or KIS, for inhibitor binding with either free or enzyme-substrate complex, were calculated from secondary plots of the slopes of the straight lines ([…]) or vertical intercept (1/Vmax) verse the concentration of inhibitors, respectively ([Jenis et al., 2019]).

α-glucosidase [4] = target: T1, α-glucosidase; test: Fluorescence quenching analysis; type: binding; conditions: for Ksv: quenching constant; for Kq: quenching rate constant, same cell as Ksv; for ∆S: van't Hoff, from 20, 31 and 37 °C (one value per inhibitor, repeated in the grid)
Procedure: α-Glucosidase (1 μM) was mixed with different concentrations of inhibitors (0–15 μM) at 20, 31, and 37°C, respectively, and the fluorescence spectra of mixed solutions were determined after equilibration for 5 min at an excitation wavelength of 250 nm. Both the excitation and emission slits were set at 10 nm. The quenching rate constant (Kq), binding constant (Ka), the number of the binding sites (n), and thermodynamic parameters enthalpy change (ΔH) and entropy change (ΔS) were calculated according to the Stern-Volmer Eq. 2 and the van’t Hoff Eqs 3–5, which were listed as follows ([Xu et al., 2019]): F0/F = 1 + Ksv[Q] = 1 + Kqτ0[Q] (2) log((F0-F)/F) = logKa+ nlogQ (3) lnKa= (-1/T(ΔH/R)) + ΔS/R (4) ΔG = ΔH-TΔS (5) Where F0 and F represent the fluorescence intensities in the absence or presence of inhibitor, [Q] denote the concentration of inhibitor, τ0 is the constant of the lifetime of fluorophore (10^–8 s) and R is the gas constant of 8.31 J/(mol × K).

[5] = target: T2, α-Glucosidase (EC:3.2.1.20, MAL12) (Saccharomyces cerevisiae, UniProt P53341); test: biochemical
T2 construct: purchased
T2 sequence (P53341 whole entry): as above
Procedure: α-Glucosidase (EC:3.2.1.20, MAL12) from Saccharomyces cerevisiae was dissolved in 0.1 mol/L PBS solutions with a pH of 6.8, and diluted to be a 1.0 U/ml solution. The substrate p-nitrophenyl-[…] (pNPG) was dissolved in PBS to be a 1 mM solution. […] The absorbance of p-nitrophenol was monitored at 405 nm. […] The negative control was performed by adding PBS instead of α-glucosidase, the blank was prepared by adding solvent without tested compounds. The inhibition rate was calculated as Eq. 1: IR% =[(Ac-As)/Ac] × 100% (1) where Ac represents the absorbance of control without sample solution, and As denotes the absorbance of sample.

α-glucosidase [6] = target: T1, α-glucosidase; test: Circular dichroism spectroscopy of α-glucosidase with inhibitor; type: binding; parameters: dose or concentration left out as unconfirmed; conditions: after the addition of (molar ratios 20:1 and 40:1), 20°C
Procedure: The CD measurements were performed in a wavelength range of 190–250 nm at a speed of 60 nm/min. All measurements were carried out at 20°C using 1.0 mm path length quartz cuvette and sodium phosphate buffer (pH 6.8) was considered as a blank. […] All the results were expressed as ellipticity in mill degrees.

female C57BL/6J mice [7] = conditions: 25 mg/kg BW i.g.
Procedure: as §1, with “Area under the curve (AUC) over 0–120 min was calculated by the trapezoidal method.” left out

[8] = inhibition constant, from Dixon plots
[9] = inhibitor binding with free enzyme, slope (Km/Vm) versus inhibitor concentration
[10] = sample concentration which led to 50% enzyme activity loss, pNPG substrate, pH 6.8, 37°C, read-out: IC50

With `C[C@H]1O[C@H](O[C@H]2[C@H](O)[C@@H](O)[C@@H](O[C@H]3[C@H](O)[C@@H](O)C(O)O[C@@H]3CO)O[C@@H]2CO)[C@H](O)[C@@H](O)[C@@H]1N[C@H]1C=C(CO)[C@@H](O)[C@H](O)[C@H]1O` (stereo partly shown) [Acarbose, reference compound] the “decrease of the AUC (blood glucose, 0–120 min)” value (female C57BL/6J mice [1]; 50 mg/kg BW i.g.) was 11.8%.

For `O=C1O/C(=C\c2ccc(O)cc2)C(O)=C1c1ccc(O)cc1` [Aspulvinone E], the IC50 (α-glucosidase [2]) is listed as 2.7 µM.

With `CC(C)=CCc1cc(/C=C2\OC(=O)C(c3cc4c(c(CC=C(C)C)c3)OC(C)(C)C=C4)=C2O)ccc1O` [Compound 1, Aspulvinone V] the Inhibition mode (α-glucosidase [3]) was “mixed-type”, the Ki (α-glucosidase [3]; [8]) was 6.6 µM and the KIS (α-glucosidase [3]) was 8.23 µM. For the same compound, the Ki (α-glucosidase [3]; [9]) was 3.15 µM, the “∆G” value (α-glucosidase [4]; 31 °C) was -13.9 kJ/mol and the “∆G” value (α-glucosidase [4]; 37 °C) was -12.3 kJ/mol. The “binding constants (Ka), order of magnitude” value (α-glucosidase [4]; at the three temperatures) was ~10^5 L/mol, the Kd (α-glucosidase [4]; binding constant, 20 °C, read-out: Ka (converted)) was 9.09 µM and the Kd (α-glucosidase [4]; binding constant, 31 °C, read-out: Ka (converted)) was 3.27 µM. It also gave a Kd (α-glucosidase [4]; binding constant, 37 °C, read-out: Ka (converted)) of 1.79 µM, a Ksv (α-glucosidase [4]; 20 °C) of 53500 L/mol and a Ksv (α-glucosidase [4]; 31 °C) of 78700 L/mol. For the same compound, the Ksv (α-glucosidase [4]; 37 °C) was 58100 L/mol, the Kq (α-glucosidase [4]; 20 °C) was 5.35e+12 L/mol/s and the Kq (α-glucosidase [4]; 31 °C) was 7.87e+12 L/mol/s. For the same compound, the Kq (α-glucosidase [4]; 37 °C) was 5.81e+12 L/mol/s, the “∆S” value (α-glucosidase [4]) was 148.2 J/mol/K and the IC50 [5, 10] was 2.2 ± 0.4 µM. The “change of α-glucosidase CD spectrum (negative peaks at 209 and 222 nm)” value (α-glucosidase [6]) was “loss of the α-helix structure”.

`CC(C)=CCc1cc(C2=C(O)C(=Cc3ccc4c(c3)CC(C(C)(C)O)O4)OC2=O)ccc1O` (stereo not shown) [Compound 2, Aspulvinone W] gave an IC50 [5] of 32 ± 5.8 µM.

`CC1(C)CCc2cc(C3=C(O)C(=Cc4ccc5c(c4)CC(C(C)(C)O)O5)OC3=O)ccc2O1` (stereo not shown) [Compound 3, Aspulvinone X] showed an IC50 [5] of 38.6 ± 5.2 µM.

For `CC(C)=CCc1cc(/C=C2\OC(=O)C(c3ccc(O)c(CC=C(C)C)c3)=C2O)ccc1O` [Compound 4, aspulvinone H], the “postprandial blood glucose peak” value (female C57BL/6J mice [7]; Figure 6C (maltose), versus the negative control group) was “significant decrease”, the “reduction of the AUC for postprandial plasma glucose in 2 h” value (female C57BL/6J mice [7]; Figure 6D (maltose 2 g/kg BW), text prints 'sucrose tolerance test') was 19.7% and the “blood glucose rise at 30 and 60 min” value (female C57BL/6J mice [1]; 25 mg/kg BW i.g., compared to negative control group) was “significantly suppressed”. The “decrease of the AUC (blood glucose, 0–120 min)” value (female C57BL/6J mice [1]; 25 mg/kg BW i.g.) was 13.2%, the Inhibition mode (α-glucosidase [3]) was “mixed-type” and the Ki (α-glucosidase [3]; [8]) was 6.58 µM. The KIS (α-glucosidase [3]) was 6.62 µM, the Ki (α-glucosidase [3]; [9]) was 4.7 µM and the “∆G” value (α-glucosidase [4]; 31 °C) was -12.5 kJ/mol. The “∆G” value (α-glucosidase [4]; 37 °C) was -9.9 kJ/mol, the Kd (α-glucosidase [4]; Ka, binding constant, 20 °C) was 34.5 µM and the Kd (α-glucosidase [4]; Ka, binding constant, 31 °C) was 12.7 µM. For the same compound, the Kd (α-glucosidase [4]; Ka, binding constant, 37 °C) was 4.31 µM, the Kd (α-glucosidase [4]; binding constants (Ka), order of magnitude, at the three temperatures) was roughly 100 µM and the Ksv (α-glucosidase [4]; 20 °C) was 56900 L/mol. For the same compound, the Ksv (α-glucosidase [4]; 31 °C) was 55300 L/mol, the Ksv (α-glucosidase [4]; 37 °C) was 60200 L/mol and the Kq (α-glucosidase [4]; 20 °C) was 5.69e+12 L/mol/s. For the same compound, the Kq (α-glucosidase [4]; 31 °C) was 5.53e+12 L/mol/s, the Kq (α-glucosidase [4]; 37 °C) was 6.02e+12 L/mol/s and the “∆S” value (α-glucosidase [4]) was 240.1 J/mol/K. For the same compound, the IC50 [5, 10] was 4.6 ± 1.3 µM and the “change of α-glucosidase CD spectrum (negative peaks at 209 and 222 nm)” value (α-glucosidase [6]) was “loss of the α-helix structure”.

With `CC(C)(O)[C@H]1Cc2cc(/C=C3\OC(=O)C(c4ccc5c(c4)C[C@H](C(C)(C)O)O5)=C3O)ccc2O1` [Compound 5, aspulvinone J-CR] the IC50 [5] was 44.3 ± 8.9 µM.

With `CC(C)=CCc1cc(/C=C2\OC(=O)C(c3cc(CC=C(C)C)c(O)c(CC=C(C)C)c3)=C2O)ccc1O` [Compound 6, aspulvinone R] the IC50 [5] was 10.8 ± 2.3 µM.

In the case of `O=C1O/C(=C/c2ccc(O)cc2)C(O)=C1c1ccc(O)cc1` [isoaspulvinone E], the IC50 (α-glucosidase [2]) is given as 8.92 µM.
